Measurements as given in patent US4883801A, “Xanthine derivative pest control agents” (priority 1986, dated 1989).
Values joined by “and” are separate entries in the source; they are usually repeats but may differ in a detail not shown here. Equal entries are not always repeated.

Legend:
[1] = tested on: light organ octopamine-stimulated adenylate cyclase; conditions: cited from earlier work
[2] = tested on: Manduca sexta (tobacco hornworm) larvae; assay: Antifeeding test: tomato leaves sprayed with compound, tobacco hornworm larvae; type: in vivo
[3] = tested on: hornworm nerve cord PDE (cyclic AMP phosphodiesterase); assay: Inhibition of cyclic AMP phosphodiesterase activity in homogenates of tobacco hornworm nerve cord; type: biochemical, Manduca sexta; conditions: for activity of structurally similar compounds tested as described in Example 46: Example 47
Experimental: Nerve cord was dissected from 40-60 mm long M. sexta larvae, cleaned, and homogenized (2 mg/ml) in 6 Mm Tris-maleate, pH 7.4. PDE activity was measured (4 min. incubation at 30° C.) in an assay system (0.1 ml) containing 80 mM Tris-maleate, pH 7.4; 6 mM Mg--SO4; 10^-7 M^3 H-cyclic AMP; and tissue homogenate (0.02 ml). Nerve cord was evaluated in the presence and the absence of the xanthine derivative. For purposes of the evaluation, the rate of formation of ^3 H-5' AMP was measured using the technique described in Filburn, C. […] The values shown in FIG. 1D are the mean (±SEM) of three separate experiments.

[4] = Tissue level of theophylline in larvae after feeding on sprayed leaves (immunoenzymatic assay); type: in vivo, Manduca sexta; conditions: 1% spray, three days of feeding; mean ± deviation, two groups of six pooled animals; 4320 min; read-out: internal theophylline concentration of larvae
Experimental: To determine if the dosage of xanthine derivatives described in experiments 4, 7 and 8-11 and ingested by the larvae (causing pestistatic and pesticidal activity in vivo) were actually absorbed by the animals and were sufficient to inhibit PDE in vitro, additional experiments were carried out in order to estimate tissue levels of xanthine derivative following three days of feeding on various doses of the derivative. Groups of six larvae were placed on leaves treated with vehicle or theophylline spray. After three days, leaf area was recorded and larvae (alive or dead) were rinsed to remove any compound adhering to their cuticle, homogenized whole, centrifuged, and the cell-free supernatant assayed for theophylline content by immunoenzymatic assay (Emit-AAD theophylline assay (Syva Company, Palo Alto, CA.)). […] From mammalian studies, it is known that theophylline penetrates freely into all body compartments (Rall, T. W., supra.). […] This observation tends to rule out the hypothesis wherein adenosine receptors are involved as a mechanism for the antifeeding effects of the xanthine derivatives, since, in vertebrates, xanthine derivatives such as theophylline are competitive adenosine receptor antagonists, but exert such antagonism at much lower concentrations, typically 1-25 micromoles. […]

[5] = tested on: larvae of Manduca sexta (tobacco hornworm); assay: Feeding on artificial media containing the test material; type: in vivo; conditions: concentrations found naturally in undried tea leaves or coffee beans
Experimental: Various concentrations of finely powdered tea leaves or powdered coffee beans were mixed in artificial media which was then plated out in small petri dishes and allowed to harden. […] At concentrations greater than 10% (for coffee) or 3% (for tea), larvae were killed within 24 hours.
The larvae of Manduca sexta were fed on either artificial or natural food. When added to artificial media, caffeine (the major methylxanthine found in tea and coffee) exerted behavioral effects that were qualitatively similar to those of the tea and coffee described above. […] Further, the dried tea leaves, which contain 2-3 times the caffeine content of dried coffee beans, were about 2-3 times as effective as coffee beans in inhibiting weight gain. Further, the concentrations of caffeine which are found naturally in undried tea leaves (0.68-2.1%) or coffee beans (0.8-1.8%) were sufficient to kill most Manduca larvae. Thus, caffeine functions as an endogenous insecticide.

[6] = tested on: adenosine receptor; conditions: Bruns et al.; cited from earlier work
[7] = tested on: Callosobrucaus chinensis; conditions: concentration of 1.5%; cited from earlier work

| Structure (SMILES) | potency as partial agonist relative to octopamine [1] | inhibition of leaf consumption ([2]; 1% spray, three days) | Vmax (percent inhibition of feeding at the highest dose used) ([2]; highest dose usually a 3% spray solution) | EC50 (spray concentration required to cause 50% inhibition of feeding) ([2]; spray on tomato leaves, calculated from dose-response curves, Manduca sexta 6 per leaf) | activity of structurally similar compounds tested as described in Example 46 [3] | inhibition of hornworm nerve cord PDE activity in vitro ([3]; at the internal concentration found (4.1 mM)) | concentration [4] | EC50 (spray concentration required to cause 50% inhibition of feeding) ([2]; in vivo) | Vmax (percent inhibition of feeding at the highest dose used) ([2]; in vivo) | antifeeding effect (in words) ([2]; in vivo) | concentrations sufficient to kill most Manduca larvae [5] | weaker than theophylline as an adenosine antagonist [6] | PDE inhibition (in words) ([3]; FIG. 1D) | sterility [7] |
| --- | --- | --- | --- | --- | --- | --- | --- | --- | --- | --- | --- | --- | --- | --- |
| CNC=Nc1ccc(Cl)cc1C [DCDM, N-demethylchlordimeform] | about six-fold more potent than octopamine | – | – | – | – | – | – | – | – | – | – | – | – | – |
| Cn1c(=O)c2[nH]cnc2n(C)c1=O [Example 15, 1,3-dimethyl-xanthine (theophylline), reference compound] | – | about 50% | 94% | 1.5 % (gm/100 ml) | active | > 80% | 4100 ± 1100 µM | – | – | – | – | – | – | – |
| Cn1c(=O)c2c(ncn2C)n(C)c1=O [Example 23, 1,3,7-trimethyl-xanthine (caffeine)] | – | – | – | – | active | – | – | 0.3 | 98 | somewhat more potent than theophylline | 0.68-2.1% and 0.8-1.8% | 10 fold | about equally potent | ~100% |
